# Experimental data reported in patent publication US12006553B2, “Companion diagnostics for mitochondrial inhibitors” (priority 2017, dated 2024).
# What was measured:
# cancer stem cells (CSCs) = assay: CSC propagation / 3D spheroid (mammosphere) formation on low-attachment plates; type: cell-based; settings: for IC50: CSCs, read-out: IC-50 for inhibition of CSC propagation; for inhibition of CSC propagation / 3D spheroid formation (in words): anchorage-independent growth
# From the text: Because CSCs are relatively “rare”, little is known about their metabolic properties. […] Under such conditions, the majority (more than 90%) of “bulk” cancer cells die via apoptosis, while only the CSCs survive and propagate, ultimately resulting in the formation of 3D spheroid structures after about 5 days. Each 3D spheroid is clonally formed from a single CSC. For breast CSCs, these 3D spheroids are also known as tumor-spheres or mammospheres. The generation of these 3D spheroids is thought to mimic the process of tumor formation and/or metastasis, thus providing a model for drug discovery and functional validation.
# [1] = system: DoxyR-CSCs (Doxy-resistant (DoxyR)-MCF7 cells); assay: Sensitivity of Doxy-resistant CSCs to other metabolic therapies; type: cell-based
# From the text: One concern with doxycycline therapy is the potential for the development of drug-resistance in CSCs. To investigate this issue, the inventors developed and characterized the phenotypic behavior of Doxy-resistant (DoxyR)-MCF7 cells.
# [2] = system: HMGR (3-hydroxy-3-methylglutaryl-CoA-reductase); assay: Inhibition of mevalonate metabolism; settings: statin-like
smiles,measurement,setting,value
CC(=O)c1c(C)c2cnc(Nc3ccc(N4CCNCC4)cn3)nc2n(C2CCCC2)c1=O [Palbociclib],IC50,cancer stem cells (CSCs),~100 nM
O=C(Nc1ccc([N+](=O)[O-])cc1Cl)c1cc(Cl)ccc1O [Niclosamide],sensitivity of DoxyR-CSCs to the drug,[1],sensitive
CC[C@H]1/C=C/C=C/C[C@@H](C)[C@H](O)[C@@](C)(O)C(=O)[C@@H](C)[C@H](O)[C@@H](C)C(=O)[C@@H](C)[C@H](O)[C@@H](C)/C=C/C(=O)O[C@@H]2[C@H](C)[C@H](CC1)O[C@]1(CC[C@H](C)[C@H](C[C@@H](C)O)O1)[C@H]2C [oligomycin],inhibition of CSC propagation / 3D spheroid formation (in words),cancer stem cells (CSCs),effectively blocked
CNC(=O)c1cc(Oc2ccc(NC(=O)Nc3ccc(Cl)c(C(F)(F)F)c3)cc2)ccn1 [Sorafenib],sensitivity of DoxyR-CSCs to the drug,[1],sensitive
CC(C)(C)C(O)/C=C/c1ccc2c(c1)OCO2 (centres unmarked) [Stiripentol],sensitivity of DoxyR-CSCs to the drug,[1],sensitive
C[C@@H]1O[C@@H](O[C@@H]2[C@@H](Oc3cc(O)c4c(c3)O[C@H](c3ccc(O)cc3)CC4=O)O[C@@H](COC(=O)C[C@@](C)(O)CC(=O)O)[C@H](O)[C@H]2O)[C@@H](O)[C@H](O)[C@H]1O [melitidin],inhibition of CSC propagation / 3D spheroid formation (in words),cancer stem cells (CSCs),inhibit
same,inhibition of mevalonate metabolism,[2],inhibit
CCN(CC)CCCC(C)Nc1ccnc2cc(Cl)ccc12 (centres unmarked) [Chloroquine],sensitivity of DoxyR-CSCs to the drug,[1],sensitive
COc1ccc([C@@H]2CC(=O)c3c(O)cc(O[C@@H]4O[C@H](COC(=O)CC(C)(O)CC(=O)O)[C@@H](O)[C@H](O)[C@H]4O[C@@H]4O[C@@H](C)[C@H](O)[C@@H](O)[C@H]4O)cc3O2)cc1O (some centres unmarked) [brutieridin],inhibition of CSC propagation / 3D spheroid formation (in words),cancer stem cells (CSCs),inhibit
same,inhibition of mevalonate metabolism,[2],inhibit
O=C1O[C@H]([C@@H](O)CO)C(O)=C1O [Vitamin C],sensitivity of DoxyR-CSCs to the drug,[1],sensitive
"[Cl-].c1ccc2c(c1)[I+]c1ccccc1-2 [DPI, diphenyleneiodium chloride]",IC50,cancer stem cells (CSCs),~3 nM
same,potency for targeting CSCs relative to Palbociclib,cancer stem cells (CSCs); versus Palbociclib,approximately 30 times
CCc1c2c(nc3ccc(OC(=O)N4CCC(N5CCCCC5)CC4)cc13)-c1cc3c(c(=O)n1C2)COC(=O)[C@]3(O)CC [Irinotecan],sensitivity of DoxyR-CSCs to the drug,[1],sensitive
